The record followed here is US9187429B2, “Phenyl-tetrahydroisoquinoline derivatives” (Hoffmann-La Roche Inc., priority 2012, dated 2015).

Structures can show the parent of a compound that is named as a salt.

The target in experiment [1] is human CYP11B1 (Homo sapiens (Human), UniProt P15538). The experiment can be described thus: G-402 cellular enzyme assay, human CYP11B1 (cortisol release). It counts as cell-based. The settings on record: G-402 cells expressing human CYP11B1, 1 μM Deoxycortisol. The source says: (§1) The expression plasmids contains the ORF for either human/cyno CYP11B1 or CYP11B2 under the control of a suitable promoter (CMV-promoter) and a suitable resistance marker (neomycin). Using standard techniques the expression plasmid is transfected into G-402 cells and these cells are then selected for expressing the given resistance markers. Individual cell-clones are then selected and assessed for displaying the desired enzymatic activity using 11-Deoxycorticosterone (Cyp 11B2) or 11-Deoxycortisol (Cyp 11B1) as a substrate.
Sequence of human CYP11B1 (P15538 25-503): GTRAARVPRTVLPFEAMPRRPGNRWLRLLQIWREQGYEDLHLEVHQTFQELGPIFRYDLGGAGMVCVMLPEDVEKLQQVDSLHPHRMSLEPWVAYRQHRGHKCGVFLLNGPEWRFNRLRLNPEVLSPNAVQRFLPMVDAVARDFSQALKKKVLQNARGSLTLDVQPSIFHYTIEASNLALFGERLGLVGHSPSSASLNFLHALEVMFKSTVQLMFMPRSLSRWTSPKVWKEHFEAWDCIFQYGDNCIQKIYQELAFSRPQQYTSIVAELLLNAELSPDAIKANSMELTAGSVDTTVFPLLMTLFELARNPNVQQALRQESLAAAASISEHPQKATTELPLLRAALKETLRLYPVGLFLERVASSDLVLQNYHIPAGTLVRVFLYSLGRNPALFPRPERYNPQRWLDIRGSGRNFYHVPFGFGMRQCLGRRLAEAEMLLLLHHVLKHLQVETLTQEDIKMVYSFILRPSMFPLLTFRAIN
(§2) G-402 cells expressing CYP11 constructs were established as described above and maintained in McCoy's 5a Medium Modified, ATCC Catalog No. 30-2007 containing 10% FCS and 400 μg/ml G418 (Geneticin) at 37° C. under an atmosphere of 5% CO2/95% air. […] For assaying enzymatic activity, cells were plated onto 96 well plates and incubated for 16 h. An aliquot of the supernatant is then transferred and analyzed for the concentration of the expected product (Aldosterone for CYP11B2; Cortisol for CYP11B1). The concentrations of these steroids can be determined using HTRF assays from CisBio analyzing either Aldosterone or Cortisol.
(§3) Inhibition of the release of produced steroids can be used as a measure of the respective enzyme inhibition by test compounds added during the cellular enzyme assay. The dose dependent inhibition of enzymatic activity by a compound is calculated by means of plotting added inhibitor concentrations (x-axes) vs. measured steroid/product level (y-axes). The inhibition is then calculated by fitting the following 4-parameter sigmoidal function (Morgan-Mercer-Flodin (MMF) model) to the raw data points using the least squares method:
(§4) [formula] wherein, A is the maximum y value, B is the EC50 factor determined using XLFit, C is the minimum y value and D is the slope value.
(§5) EC50 values for compounds claimed herein were tested with the G402-based assay system described. Cyp 11B2 enzyme activity was tested in presence of 1 μM Deoxycorticosterone and variable amounts of inhibitors; Cyp 11B1 enzyme activity was tested in presence of 1 μM Deoxycortisol and variable amounts of inhibitors.

Experiment [2] concerns the target CYP11B2 (Homo sapiens (Human), UniProt P19099). Briefly: G-402 cellular enzyme assay, human CYP11B2 (aldosterone release). It counts as cell-based. The settings on record: G-402 cells expressing human CYP11B2, 1 μM Deoxycorticosterone.
Description: as §1, §2, §3, §4, §5

Sequence of CYP11B2 (P19099 25-503): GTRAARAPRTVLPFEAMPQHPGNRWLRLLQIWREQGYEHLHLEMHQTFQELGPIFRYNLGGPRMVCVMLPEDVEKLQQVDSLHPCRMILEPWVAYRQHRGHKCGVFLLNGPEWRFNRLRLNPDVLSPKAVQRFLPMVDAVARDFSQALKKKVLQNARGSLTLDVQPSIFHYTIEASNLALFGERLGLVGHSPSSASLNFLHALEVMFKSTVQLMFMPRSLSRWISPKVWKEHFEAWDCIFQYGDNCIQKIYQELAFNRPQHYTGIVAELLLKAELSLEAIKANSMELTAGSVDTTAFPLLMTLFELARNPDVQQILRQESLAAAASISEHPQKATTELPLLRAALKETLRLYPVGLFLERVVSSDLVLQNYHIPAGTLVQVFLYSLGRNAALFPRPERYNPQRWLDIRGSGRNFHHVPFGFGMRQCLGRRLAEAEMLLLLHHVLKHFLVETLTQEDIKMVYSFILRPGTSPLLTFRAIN

As for `CCC(=O)NC1CCCc2c(-c3ccc(F)cc3F)cncc21` (racemic) [Example 42, (rac)-N-(4-(2,4-Difluorophenyl)-5,6,7,8-tetrahydroisoquinolin-8-yl)propionamide], the EC50 (as a rule, the concentration needed to bring the measured effect to its halfway point) came out at 2400 nM in experiment [1] and 109 nM in experiment [2].

Consider `CCC(=O)NC1CCCc2c(-c3cc(F)c(F)cc3F)cncc21` (racemic) [Example 43, (rac)-N-(4-(2,4,5-Trifluorophenyl)-5,6,7,8-tetrahydroisoquinolin-8-yl)propionamide], for which the EC50 in experiment [1] stood at 1150 nM; in experiment [2], 27 nM.

Turning to `CCC(=O)NC1CCCc2c(-c3ccc(F)c(F)c3)cncc21` (racemic) [Example 44, (rac)-N-(4-(3,4-Difluorophenyl)-5,6,7,8-tetrahydroisoquinolin-8-yl)propionamide], the half-maximal effective concentration (EC50) turned out to be 826 nM in experiment [1] and 47 nM in experiment [2].

As to `CCC(=O)NC1CCCc2c(-c3ccc(Cl)c(Cl)c3)cncc21` (racemic) [Example 45, (rac)-N-(4-(3,4-Dichlorophenyl)-5,6,7,8-tetrahydroisoquinolin-8-yl)propionamide], the EC50 in experiment [1] is 177 nM; in experiment [2], 3 nM.

`CCC(=O)NC1CCc2c(-c3ccc(C(F)(F)F)cc3)cncc21` (racemic) [Example 49, (rac)-N-(4-(4-(Trifluoromethyl)phenyl)-6,7-dihydro-5H-cyclopenta[c]pyridin-7-yl)propionamide]: the EC50 in experiment [1] amounted to 4040 nM; in experiment [2], 79 nM.

For `CCC(=O)NC1CCc2c(-c3ccc(Cl)c(F)c3)cncc21` (racemic) [Example 55, (rac)-N-(4-(4-Chloro-3-fluorophenyl)-6,7-dihydro-5H-cyclopenta[c]pyridin-7-yl)propionamide], the values for the EC50 in experiment [1] and in experiment [2] were 184 nM and 12 nM, respectively.

For `CCC(=O)NC1CCc2c(-c3ccc(F)c(C)c3)cncc21` (racemic) [Example 58, (rac)-N-(4-(4-Fluoro-3-methylphenyl)-6,7-dihydro-5H-cyclopenta[c]pyridin-7-yl)propionamide], the EC50 stood at 156 nM in experiment [1] and 10 nM in experiment [2].

As for `CCC(=O)NC1CCc2c(-c3ccc(C(F)(F)F)cc3F)cncc21` (racemic) [Example 61, (rac)-N-(4-(2-Fluoro-4-(trifluoromethyl)phenyl)-6,7-dihydro-5H-cyclopenta[c]pyridin-7-yl)propionamide], the concentration giving a half-maximal response (EC50) in experiment [1] turned out to be 3610 nM; in experiment [2] it was 44 nM.

Take `CCS(=O)(=O)NC1CCc2c(-c3ccc(C(F)(F)F)cc3)cncc21` (racemic) [Example 64, (rac)-N-(4-(4-(Trifluoromethyl)phenyl)-6,7-dihydro-5H-cyclopenta[c]pyridin-7-yl)ethanesulfonamide]: the EC50 in experiment [1] came out at 12700 nM; in experiment [2] it was 730 nM.

Take `CCS(=O)(=O)NC1CCc2c(-c3ccc(C(F)(F)F)c(F)c3)cncc21` (racemic) [Example 71, (rac)-N-(4-(3-Fluoro-4-(trifluoromethyl)phenyl)-6,7-dihydro-5H-cyclopenta[c]pyridin-7-yl)ethanesulfonamide]: the EC50 in experiment [1] was determined as 3020 nM; in experiment [2] it was 242 nM.

In the case of `OC1CCc2c(-c3ccc(C(F)(F)F)cc3F)cncc21` (racemic) [Example 80, (rac)-4-(2-Fluoro-4-(trifluoromethyl)phenyl)-6,7-dihydro-5H-cyclopenta[c]pyridin-7-ol], the concentration for a half-maximal effect (EC50) in experiment [1] came out at 427 nM; in experiment [2], 4.5 nM.

For the compound `N#Cc1ccc(-c2cncc3c2CCC3O)cc1` (racemic) [Example 81, (rac)-4-(7-Hydroxy-6,7-dihydro-5H-cyclopenta[c]pyridin-4-yl)benzonitrile], the 50% effective concentration (EC50) was determined as 12 nM in experiment [1] and 1.3 nM in experiment [2].

For the compound `OC1CCc2c(-c3ccc(C(F)(F)F)c(F)c3)cncc21` (racemic) [Example 82, (rac)-4-(3-Fluoro-4-(trifluoromethyl)phenyl)-6,7-dihydro-5H-cyclopenta[c]pyridin-7-ol], the EC50 came to 71 nM in experiment [1] and 5.2 nM in experiment [2].

Turning to `OC1CCc2c(-c3ccc(C(F)(F)F)cc3)cncc21` (racemic) [Example 83, (rac)-4-(4-(Trifluoromethyl)phenyl)-6,7-dihydro-5H-cyclopenta[c]pyridin-7-ol], the values for the EC50 in experiment [1] and in experiment [2] were 740 nM and 16.9 nM, respectively.

In the case of `CC1(O)CCc2c(-c3ccc(C(F)(F)F)cc3)cncc21` (racemic) [Example 84, (rac)-7-Methyl-4-(4-(trifluoromethyl)phenyl)-6,7-dihydro-5H-cyclopenta[c]pyridin-7-ol], the values for the 50% effective concentration (EC50) in experiment [1] and in experiment [2] were 5 nM and 4.8 nM, respectively.

Consider `NC1CCc2c(-c3ccc(C(F)(F)F)c(F)c3)cncc21` (racemic) [Example 89, (rac)-4-(3-Fluoro-4-trifluoromethyl-phenyl)-6,7-dihydro-5H-[2]pyrindin-7-ylamine], for which the EC50 in experiment [1] was 1380 nM; in experiment [2] it was 54.7 nM.

On to `CCC(=O)NC1CCc2c(-c3ccc(C(F)(F)F)c(F)c3)cncc21` (racemic) [Example 90, (rac)-N-(4-(3-Fluoro-4-(trifluoromethyl)phenyl)-6,7-dihydro-5H-cyclopenta[c]pyridin-7-yl)propionamide], for which the 50% effective concentration (EC50) in experiment [1] was determined as 1900 nM; in experiment [2], 26.7 nM.

As to `O=S(=O)(NC1CCc2c(-c3ccc(C(F)(F)F)c(F)c3)cncc21)C1CC1` (racemic) [Example 91, (rac)-Cyclopropanesulfonic acid [4-(3-fluoro-4-trifluoromethyl-phenyl)-6,7-dihydro-5H-[2]pyrindin-7-yl]-amide], the concentration for a half-maximal effect (EC50) was 389 nM in experiment [1] and 301 nM in experiment [2].

For `CCC(=O)OC1CCc2c(-c3ccc(C(F)(F)F)c(F)c3)cncc21` (racemic) [Example 92, (rac)-Propionic acid 4-(3-fluoro-4-trifluoromethyl-phenyl)-6,7-dihydro-5H-[2]pyrindin-7-yl ester], the concentration for a half-maximal effect (EC50) in experiment [1] stood at 441 nM; in experiment [2], 16.4 nM.

As to `NC1CCc2c(-c3ccc(C(F)(F)F)cc3)cncc21` (racemic) [Example 93, (rac)-4-(4-Trifluoromethyl-phenyl)-6,7-dihydro-5H-[2]pyrindin-7-ylamine], the values for the concentration for a half-maximal effect (EC50) in experiment [1] and in experiment [2] were 364 nM and 86.3 nM, respectively.

As for `O=S(=O)(NC1CCc2c(-c3ccc(C(F)(F)F)cc3)cncc21)C1CC1` (racemic) [Example 94, (rac)-Cyclopropanesulfonic acid [4-(4-trifluoromethyl-phenyl)-6,7-dihydro-5H-[2]pyrindin-7-yl]-amide], the EC50 came to 2330 nM in experiment [1] and 148 nM in experiment [2].

Turning to `CS(=O)(=O)NC1CCc2c(-c3ccc(C(F)(F)F)cc3)cncc21` (racemic) [Example 95, (rac)-N-[4-(4-Trifluoromethyl-phenyl)-6,7-dihydro-5H-[2]pyrindin-7-yl]-methanesulfonamide], the EC50 is 1960 nM in experiment [1] and 1800 nM in experiment [2].

Turning to `CCCS(=O)(=O)NC1CCc2c(-c3ccc(C(F)(F)F)cc3)cncc21` (racemic) [Example 96, (rac)-Propane-1-sulfonic acid [4-(4-trifluoromethyl-phenyl)-6,7-dihydro-5H-[2]pyrindin-7-yl]-amide], the half-maximal effective concentration (EC50) in experiment [1] amounted to 3870 nM; in experiment [2], 373 nM.

Consider `CC(C)(C)OC(=O)COC1CCc2c(-c3ccc(C(F)(F)F)cc3)cncc21` (racemic) [Example 97, (rac)-tert-Butyl 2-(4-(4-(trifluoromethyl)phenyl)-6,7-dihydro-5H-cyclopenta[c]pyridin-7-yloxy)acetate], for which the values for the half-maximal effective concentration (EC50) in experiment [1] and in experiment [2] were 72.4 nM and 1.4 nM, respectively.

With `COC(=O)COC1CCc2c(-c3ccc(C(F)(F)F)cc3)cncc21` (racemic) [Example 98, (rac)-Methyl 2-(4-(4-(trifluoromethyl)phenyl)-6,7-dihydro-5H-cyclopenta[c]pyridin-7-yloxy)acetate], the values for the EC50 in experiment [1] and in experiment [2] were 628 nM and 19.6 nM, respectively.

In the case of `O=C(O)COC1CCc2c(-c3ccc(C(F)(F)F)cc3)cncc21` (racemic) [Example 99, (rac)-2-(4-(4-(Trifluoromethyl)phenyl)-6,7-dihydro-5H-cyclopenta[c]pyridin-7-yloxy)acetic acid hydrochloride], the EC50 in experiment [1] turned out to be 1190 nM; in experiment [2], 65.9 nM.

For `CNC(=O)COC1CCc2c(-c3ccc(C(F)(F)F)cc3)cncc21` (racemic) [Example 100, (rac)-N-Methyl-2-(4-(4-(trifluoromethyl)phenyl)-6,7-dihydro-5H-cyclopenta[c]pyridin-7-yloxy)acetamide], the concentration for a half-maximal effect (EC50) was found to be 430 nM in experiment [1] and 12.9 nM in experiment [2].

With `CN(C)C(=O)COC1CCc2c(-c3ccc(C(F)(F)F)cc3)cncc21` (racemic) [Example 101, (rac)-N,N-Dimethyl-2-(4-(4-(trifluoromethyl)phenyl)-6,7-dihydro-5H-cyclopenta[c]pyridin-7-yloxy)acetamide], the EC50 in experiment [1] was 1270 nM; in experiment [2] it was 26.9 nM.
